Experimental data taken from patent US8426358B2, “Methods for treating atherosclerosis” (Amgen Inc., priority 2006, dated 2013).
Residue numbers refer to the chain shown, from its start.

Tests used:
LCAT C31A mutant = biological target: T1, LCAT C31A mutant (Homo sapiens, UniProt P04180, C55A); assay: Activation of recombinant LCAT C31A mutant; assay type: biochemical; details: recombinant protein
T1 construct: full-length human LCAT cDNA was isolated from normal human liver cDNA library; FLAG (C); His (C); made in house; host or cells: CHO cells, secreted into serum-free medium
T1 sequence (P04180 25-440 C55A): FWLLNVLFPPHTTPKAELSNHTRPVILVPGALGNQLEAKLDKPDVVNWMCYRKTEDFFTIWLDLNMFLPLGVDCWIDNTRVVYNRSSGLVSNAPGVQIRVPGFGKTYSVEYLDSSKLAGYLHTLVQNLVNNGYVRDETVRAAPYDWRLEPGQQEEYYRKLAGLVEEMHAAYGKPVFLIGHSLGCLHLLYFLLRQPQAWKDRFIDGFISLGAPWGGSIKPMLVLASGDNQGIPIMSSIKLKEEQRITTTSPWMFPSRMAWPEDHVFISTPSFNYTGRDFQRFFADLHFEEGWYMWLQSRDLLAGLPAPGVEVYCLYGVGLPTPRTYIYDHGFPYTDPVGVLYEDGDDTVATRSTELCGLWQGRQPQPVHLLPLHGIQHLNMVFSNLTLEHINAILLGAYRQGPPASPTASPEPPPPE
Excerpt: (§1) For measuring compound activity using apoAI-liposome assay format, full-length human LCAT cDNA was isolated from normal human liver cDNA library (BioChain, Hayward, Calif.) with standard protocol and cloned into a pCMV-Flag vector (See Example 18). Recombinant LCAT was expressed in CHO cells and the enzyme secreted from stably transfected cells was harvested in serum-free culture medium. Recombinant LCAT identity was confirmed with anti-human LCAT and anti-Flag antibodies. The activity of recombinant LCAT enzyme was determined using apoAI-liposome substrates prepared by the standard cholate-dialysis procedure (Chen et al. (1982) J. Lipid Res. 23: 680-691. The initial mixture contained egg PC/^3H-unesterfied cholesterol/human apoAI (molar ratio of 250:12.5:0.8). After dialysis the proteoliposomes were incorporated with recombinant LCAT protein. LCAT activity was determined by measuring the conversion of radiolabeled cholesterol to cholesteryl ester and expressed in nmol CE/mL per hour.
(§2) Results summarized in FIG. 2(B) illustrate the mechanism of action of compounds of the invention on LCAT enzyme. Two loss-of-function LCAT mutants, H377A and S181A were generated, in which the critical catalytic triad of the enzyme was destroyed as described in Francone et al. (1991) Biochemistry 30: 10074-77; Peelman et al. (1998) Protein Sci. 7: 587-599; and Peelman et al. (2000) Curr. Opin. Lipidol. […]

LCAT C184A mutant = biological target: T2, LCAT C184A mutant (Homo sapiens, UniProt P04180, C208A); assay: Activation of recombinant LCAT C184A mutant; assay type: biochemical; details: recombinant protein
T2 construct: full-length human LCAT cDNA was isolated from normal human liver cDNA library; FLAG (C); His (C); made in house; host or cells: CHO cells, secreted into serum-free medium
T2 sequence (P04180 25-440 C208A): T1 sequence (P04180 25-440 C55A) with A31C, C184A
Excerpt: as §1, §2

LCAT mutant H377A = biological target: T3, LCAT mutant H377A (Homo sapiens, UniProt P04180, H401A); assay: Activity of loss-of-function LCAT mutant H377A with or without compound; assay type: biochemical; details: nonfunctional enzyme
T3 construct: full-length human LCAT cDNA was isolated from normal human liver cDNA library; FLAG (C); His (C); made in house; host or cells: CHO cells, secreted into serum-free medium
T3 sequence (P04180 25-440 H401A): T1 sequence (P04180 25-440 C55A) with A31C, H377A
Excerpt: as §1, §2

[1] = Plasma TC, HDL and LpB cholesterol in Syrian hamsters after IP dosing; assay type: in vivo; details: IP 20 mg/kg, one dose per day, 4 days, FIG. 6
Protocol: (§3) Rodents used for assessing the in vivo effects of the compounds of the invention include BALB/c mice, CD1 mice, and Syrian hamsters of wild type fed with normal chew. These animals were treated with either vehicle or Compound A (3-(5-ethylthio)-1,3,4-thiadiazol-2-ylthio)pyrazine-2-carbonitrile) by IP injection. At time points (see Figures) after compound administration, blood samples were collected, plasma was immediately separated, and plasma levels of lipids, lipoprotein and LCAT activity were determined.
Hamsters (Syrian, male, 12 weeks old, n=6 per group) were treated with either vehicle (control) or Compound A via IP administration (20 mg/kg, one dose per day, 4 days). Plasma samples were collected and concentrations of total cholesterol (TC), panel B, and HDL cholesterol (panel A) were measured. LpB cholesterol contents were obtained by subtracting HDL from TC (panel C).

LCAT mutant S181A = biological target: T4, LCAT mutant S181A (Homo sapiens, UniProt P04180, S205A); assay: Activity of loss-of-function LCAT mutant S181A with or without compound; assay type: biochemical; details: nonfunctional enzyme
T4 construct: full-length human LCAT cDNA was isolated from normal human liver cDNA library; FLAG (C); His (C); made in house; host or cells: CHO cells, secreted into serum-free medium
T4 sequence (P04180 25-440 S205A): T1 sequence (P04180 25-440 C55A) with A31C, S181A
Excerpt: as §1, §2

LCAT = assay: Plasma LCAT activity assay in LCAT-deficient (lcat -/-) plasma samples; assay type: biochemical; details: lcat -/- mutant mouse plasma, in the presence or absence of compound
Protocol: Activity of the modified LCAT of the invention and activities of compounds of the invention were determined by measuring change of the rate of conversion of ^3H-labeled cholesterol to cholesteryl ester (CE). In the plasma LCAT activity assay, human plasma samples were equilibrated with a trace amount of radiolabeled cholesterol at 4° C. and the rate of cholesterol esterification was measured by TLC analysis after incubation at 37° C. (Dobiasova, supra). EC50 represents a compound concentration achieving 50% of maximal activation of LCAT-mediated cholesterol esterification. Results presented in FIG. 2(A) confirm activity and specificity of the compounds of the invention on LCAT enzyme. This experiment studied the effect of Compound A in LCAT-deficient plasma samples obtained from lcat mutant mice. Ng et al. (1997) J. Biol. Chem. 272:1 5777-81.

[2] = FPLC elution profiles of pooled hamster plasma (cholesterol, triglyceride); assay type: in vivo; details: hamsters, IP 20 mg/kg/day, 4 days, FIG. 7
Protocol: Hamsters (n=6) were treated with either vehicle (control), or Compound A via IP administration (20 mg/kg/day, 4 days). Plasma samples were pooled within each treatment group, and separated by FPLC using two serially connected Superose 6 columns (Pharmacia Biotech Inc.). Cholesterol (panel A) and triglyceride (panel B) levels were determined in 0.5 ml fractions.

[3] = HDL particle size profiles by Gradient Gel Electrophoresis (GGE) of pooled hamster plasma; assay type: in vivo; details: hamsters, 20 mg/kg/day, 4 days
Protocol: Hamsters were treated with either vehicle or Compound A as described above (20 mg/kg/day, 4 days, n=6). Plasma samples were collected and pooled for each group. An aliquot of pooled plasma was analyzed using GGE as described in Blanche et al. (1981) BBA 665: 408-419.

[4] = Plasma HDL cholesterol in CD1 mice after IP dosing; assay type: in vivo; details: IP 20 mg/kg, one dose per day, 4 days, FIG. 4
Protocol: as §3
CD1 male three month old mice were treated with either vehicle (control) or with Compound A by IP injection (20 mg/kg, one dose per day, 4 days, n=8). Plasma samples were collected and HDL cholesterol concentrations were determined standard reagents and assay protocol using clinical analyzer (Infinity).

LCAT enzyme = biological target: T5, LCAT enzyme (Mus musculus, UniProt P16301); assay: Plasma LCAT activity after IP dosing of BALB/c mice; assay type: in vivo; details: male, DEPG vehicle, FIG. 3
T5 construct: from tissue; host or cells: plasma of BALB/c mice dosed IP
T5 sequence (P16301 25-438): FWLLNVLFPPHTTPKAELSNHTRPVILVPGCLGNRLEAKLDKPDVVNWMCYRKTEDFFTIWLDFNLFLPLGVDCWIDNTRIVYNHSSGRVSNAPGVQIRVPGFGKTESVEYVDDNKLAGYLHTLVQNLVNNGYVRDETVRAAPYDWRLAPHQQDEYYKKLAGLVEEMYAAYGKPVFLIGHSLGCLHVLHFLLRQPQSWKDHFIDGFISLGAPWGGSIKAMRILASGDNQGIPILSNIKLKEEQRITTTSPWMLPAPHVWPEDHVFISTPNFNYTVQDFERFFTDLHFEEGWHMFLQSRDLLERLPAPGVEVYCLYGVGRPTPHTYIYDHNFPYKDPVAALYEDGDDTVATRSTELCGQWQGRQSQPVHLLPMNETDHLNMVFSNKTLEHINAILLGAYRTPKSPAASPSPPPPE
Protocol: Activity of the modified LCAT of the invention and activities of compounds of the invention were determined by measuring change of the rate of conversion of ^3H-labeled cholesterol to cholesteryl ester (CE). In the plasma LCAT activity assay, human plasma samples were equilibrated with a trace amount of radiolabeled cholesterol at 4° C. and the rate of cholesterol esterification was measured by TLC analysis after incubation at 37° C. (Dobiasova, supra). EC50 represents a compound concentration achieving 50% of maximal activation of LCAT-mediated cholesterol esterification.
as §3
Briefly, BALB/c mice (male, 7 weeks old) were treated with either vehicle or Compound A by intra-peritoneal (IP) in the indicated doses. Animals were fed normal chow diet. […]

## CCSc1nnc(Sc2nccnc2C#N)s1 [Compound A]
LCAT C31A mutant
  Response of C31A mutant to compound (LCAT activation): failed to be activated
LCAT C184A mutant
  Response of C184A mutant to compound (LCAT activation): able to respond to the treatment in a dose dependent manner comparable to that of the wild type enzyme
LCAT mutant H377A
  LCAT activity of H377A mutant: No activity was observed
[1]
  HDL levels: increases HDL levels
  apoB-containing lipoprotein (LpB cholesterol = TC minus HDL): decreases apoB-containing lipoprotein
LCAT mutant S181A
  LCAT activity of S181A mutant: No activity was observed
LCAT
  LCAT activity in LCAT-deficient plasma: No LCAT activity was detected
[2]
  HDL particle size (FPLC): increases HDL particle size
  HDL-Ch levels (FPLC): increases HDL-Ch levels
  TG levels in the VLDL fraction (FPLC): decrease TG levels in the VLDL fraction
[3]
  HDL particle size (GGE): increase of HDL particle size
[3]; GGE
  HDL particle size profile, HDL subclass 2a: 39
  HDL particle size profile, HDL subclass 2b: 56
  HDL particle size profile, HDL subclass 3a: 3
  HDL particle size profile, HDL subclass 3b: 1
  HDL particle size profile, HDL subclass 3c: 1
[4]
  HDL cholesterol levels: increases HDL cholesterol levels
LCAT enzyme
  Plasma LCAT enzyme activity: increase LCAT enzyme activity in a dose dependent manner
